From US6326492A, “Heterocyclic protease inhibitors” (3-Dimensional Pharmaceuticals, Inc., priority 2000, dated 2001)
Structures can show the parent of a compound that is named as a salt.

Molecular target: T1, Human α-thrombin (Homo sapiens, UniProt P00734)
T1 construct: Human α-thrombin, was obtained from Enzyme Research Laboratories; purchased Enzyme Research Laboratories (South Bend, Ind.)
Assay: In vitro inhibition of purified thrombin (Ki determination, p-nitroanilide substrate hydrolysis)
Assay type: biochemical
Conditions: purified human α-thrombin 0.5 nM, substrate N-succinyl-Ala-Ala-Pro-Arg-p-nitroanilide, 50 mM HEPES, 200 mM NaCl, pH 7.5, 37° C.; read-out: thrombin inhibitory activity
Excerpt: Reagents: All buffer salts were obtained from Sigma Chemical Company (St. Louis, Mo.), and were of the highest purity available. The enzyme substrates, N-benzoyl-Phe-Val-Arg-p-nitroanilide (Sigma B7632), N-benzoyl-Ile-Glu-Gly-Arg-p-nitroanilide hydrochloride (Sigma B2291), N-p-Tosyl-Gly-Pro-Lys-p-nitroanilide (Sigma T6140), N-succinyl-Ala-Ala-Pro-Phe-p-nitroanilide (Sigma S7388) and N-CBZ-Val-Gly-Arg-p-nitroanilide (Sigma C7271) were obtained from Sigma. N-succinyl-Ala-Ala-Pro-Arg-p-nitroanilide (BACHEM L-1720) and N-succinyl-Ala-Ala-Pro-Val-p-nitroanilide (BACHEM L-1770) were obtained from BACHEM (King of Prussia, Pa.). […]
Ki Determinations: All assays are based on the ability of the test compound to inhibit the enzyme catalyzed hydrolysis of a peptide p-nitroanilide substrate. […] In general, substrate concentrations are lower than the experimentally determined value for Km. […]
In a typical Ki determination, into each well of a 96 well plate is pipetted […] of substrate solution, […] of test compound solution, and the plate allowed to thermally equilibrate at 37° C. in a Molecular Devices plate reader for>15 minutes. Reactions were initiated by the addition of a […] aliquot of enzyme and the absorbance increase at 405 nm is recorded for 15 minutes. […] The data are fit to a linear regression, and the value of the slope of the line calculated. […]

| SMILES | Ki [nM] |
| --- | --- |
| Cc1cccc(S(=O)(=O)Nc2ccc(C)n(CC(=O)NC3CCN(C(=N)N)OC3)c2=O)c1 (centres unmarked) [Example 2, 5-[2-(6-Methyl-3-{[(3-methylphenyl)sulfonyl]amino}-2-oxohydropyridyl)acetylamino]-1,2-oxazaperhydroine-2-carboxamidine trifluoroacetate] | 0.38 |
| Cc1cccc(S(=O)(=O)Nc2ccc(C)n(CC(=O)NCC3CNC(=N)NO3)c2=O)c1 (centres unmarked) [Example 1, N-[(3-Imino(1,2,4-oxadiazaperhydroin-6-yl))methyl]-2-(6methyl-3-{[(3methylphenyl)sulfonyl]amino}-2-oxohydropyridyl)acetamide trifluoroacetate] | 26 |
